Read-outs that look alike come from different tables or passages of the source.
Key:
HT29 cell line = experiment: BrdU cell growth inhibition, HT29; assay type: cell-based, human; conditions: for GI50: read-out: GI50
Outline: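 HT29 colon carcinoma cells treated with compounds diluted from 20 mM DMSO stocks into DMEM/10% FBS. Proliferation read as colorimetric BrdU incorporation ELISA; GI calculated relative to untreated cells at time 0 and control cells at day n, with GI50 extrapolated. Net cell loss below time-0 level scored as cytotoxicity.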

c-Src 3T3 cells = experiment: BrdU cell growth inhibition, c-Src 3T3; assay type: cell-based, mouse; conditions: for GI50: c-Src 3T3 (c-Src527F/NIH3T3) cells, read-out: GI50
Outline: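 c-Src 3T3 cells on poly-D-lysine plates in DMEM with 2% FBS, L-glutamine, pyruvate and 10 mM HEPES. Compounds came from 20 mM DMSO stocks diluted in DMEM/10% FBS. Proliferation was read by colorimetric BrdU-incorporation ELISA, and GI50 was extrapolated from growth relative to time-zero and untreated controls.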

[1] = brain exposure after oral administration; assay type: in vivo, male CD-1 mice; conditions: for AUClast: Brain; for KX2-361 Brain Concentrations, Group A / KX2-361 Brain Concentrations, Group B / KX2-361 Brain Concentrations, Group C: Male CD-1 mice, single PO dose 10 mg/kg (Group 3)
Experimental: Plasma concentrations were measured in mice after oral administration. All doses were formulated in purified water. Four groups of male CD-1 mice were dosed after an overnight fast and fed 4 hours post-dose. Dosing was as follows:
Protein was precipitated with 0.25 mL acetonitrile for plasma, 0.25 mL for brain. After centrifugation, supernatant was directly injected into an LC/MS system. The limit of quantitation was 1 ng/mL using a 50 μL aliquot for plasma and a 50 μL, aliquot for brain. The standard curve was 1 to 1,000 ng/mL for both plasma and brain. HPLC conditions were as follows:
HPLC System: Shimadzu SCL-10 System
• Analytical Column: Aquasil C18 5 μm 100×2 mm column. • Column Temperature: Ambient temperature • Autosampler Temperature: Ambient temperature • Mobile Phase A) 10 mM Ammonium formate in water (pH 4). • B) Acetonitrile. • Flow Rate: 0.6 mL/min • Injection Volume: 2 μL • Gradient:
• Mass Spectrometry Conditions were as follows: • Instrument: ABI Sciex API 4000 • Mode: ESI+ • Experiment: MRM (multiple reaction monitoring) • Transitions: KX2-391: m/z 432.4→114.2 (Rt=3.11 minute) • KX2-361: m/z 406.1→253.2 (Rt=3.33 minute)

GL261 glioma cells = experiment: intracranial GL261 glioma survival study; assay type: in vivo, C57BL/6 mice; conditions: for Median survival / survival Range: C57BL/6 mice, intracranial GL261
Experimental: A brain tumor mouse xenograft study was conducted comparing KX2-361 and KX2-391 (KXO1) to Temodar®. The studies were conducted in C57BL/6 mice. GL261 glioma cells (1×10^5 in 5 μl DMEM) were implanted intracranial coordinates: bregma, lateral 2.0 mm, anterior 1.2 mm, 3.0 mm depth dura. Treatment was initiated 3 days post implantation. The groups were as follows (all doses in 100 μl H2O):
The median survival range and the log-rank (Mantel-Cox) statistical test results comparing the survival distributions of the samples.

isolated Src = isolated Src (Homo sapiens, UniProt P12931); experiment: titration against isolated Src; assay type: biochemical; conditions: titration data
Chain of isolated Src (P12931 whole entry): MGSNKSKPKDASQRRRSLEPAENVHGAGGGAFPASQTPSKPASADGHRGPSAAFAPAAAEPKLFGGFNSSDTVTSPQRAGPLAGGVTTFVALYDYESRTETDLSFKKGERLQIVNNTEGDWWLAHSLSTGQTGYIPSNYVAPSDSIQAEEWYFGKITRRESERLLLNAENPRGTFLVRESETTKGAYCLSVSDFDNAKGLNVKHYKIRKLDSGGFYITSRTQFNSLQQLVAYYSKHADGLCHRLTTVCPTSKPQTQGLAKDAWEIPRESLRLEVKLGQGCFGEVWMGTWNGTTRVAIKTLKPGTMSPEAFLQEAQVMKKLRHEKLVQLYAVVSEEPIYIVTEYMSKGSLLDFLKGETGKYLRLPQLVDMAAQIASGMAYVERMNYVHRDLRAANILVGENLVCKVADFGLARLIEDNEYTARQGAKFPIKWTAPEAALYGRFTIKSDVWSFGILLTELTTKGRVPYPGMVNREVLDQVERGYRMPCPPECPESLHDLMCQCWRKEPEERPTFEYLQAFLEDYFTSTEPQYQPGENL

Shc Y239/240 = experiment: intracellular phosphorylation, Shc Y239/240; assay type: cell-based; conditions: whole cells
Experimental: (§1) HT29 (colon cancer) and c-Src527F/NIH-3T3 (Src transformed) cell lines were treated with KX2-391 or with AstraZeneca's ATP competitive Src inhibitor AZ28. AZ28 serves as a positive comparator to show what a validated Src inhibitor should do in these assays. After treatment with compound, cells were lysed, subjected to PAGE and probed with a battery of antibodies. […] In addition, off-target protein phosphorylation was also investigated. Further, induction of apoptosis was evaluated via Caspase 3 cleavage. Multiple doses of each compound were tested because the trends in response to increasing drug concentration are the most reliable indicator of activity.
(§2) The same range of multiples of the GI50 for AZ28 in these two cell lines was run as a comparison.
KX2-391 and AZ28 inhibited Src transphosphorylation.

[2] = test system: PDGF receptor tyrosine kinase Y572/574; experiment: PDGF receptor autophosphorylation in cells; assay type: cell-based; conditions: c-Src527F/NIH-3T3 cells
Experimental: as §1, §2
This is thought not to be a direct Src substrate in cells.

O=C(Cc1ccc(-c2ccc(N3CCOCC3)cc2)cn1)NCc1cccc(F)c1 [KX2-361]
GI50 (HT29 cell line; Homo sapiens, HT-29, HT29 (Colon) cells): 0.01 µM
activity at 0.05 µM (HT29 cell line; Homo sapiens, HT-29, 50 nM, read-out: HT-29 Growth, % of Control Mean, n = 3): < 0%
activity at 0.5 µM (HT29 cell line; Homo sapiens, HT-29, 500 nM, read-out: HT-29 Growth, % of Control Mean, n = 3): < 0%
activity at 5 µM (HT29 cell line; Homo sapiens, HT-29, 5 uM, read-out: HT-29 Growth, % of Control Mean, n = 3): < 0%
activity at 0.1 µM (c-Src 3T3 cells; Mus musculus, NIH3T3, 100 nM, read-out: c-Src 3T3 Growth, % of Control Mean, n = 3): < 0%
activity at 1 µM (c-Src 3T3 cells; Mus musculus, NIH3T3, 1.0 uM, read-out: c-Src 3T3 Growth, % of Control Mean, n = 3): < 0%
activity at 10 µM (c-Src 3T3 cells; Mus musculus, NIH3T3, 10 uM, read-out: c-Src 3T3 Growth, % of Control Mean, n = 3): < 0%
GI50 (c-Src 3T3 cells; Mus musculus): 0.011 µM
AUClast ([1]; single oral dose 10 mg/kg): 656 ng·h/g
AUClast ([1]; single oral dose 50 mg/kg): 3338 ng·h/g
KX2-361 Brain Concentrations, Group A ([1]; 0 hr): BLQ (BLQ: Below Limit of Quantitation (1 ng/mL))
KX2-361 Brain Concentrations, Group B ([1]; 0 hr): BLQ (BLQ: Below Limit of Quantitation (1 ng/mL))
KX2-361 Brain Concentrations, Group C ([1]; 0 hr): BLQ (BLQ: Below Limit of Quantitation (1 ng/mL))
KX2-361 Brain Concentrations, Group A ([1]; 0.5 hr): 43.98 ng/g
KX2-361 Brain Concentrations, Group B ([1]; 0.5 hr): 138.55 ng/g
KX2-361 Brain Concentrations, Group C ([1]; 0.5 hr): 116.84 ng/g
KX2-361 Brain Concentrations, Group B ([1]; 1 hr): 334.71 ng/g
KX2-361 Brain Concentrations, Group C ([1]; 1 hr): 273.32 ng/g
KX2-361 Brain Concentrations, Group A ([1]; 2 hr): 109.78 ng/g
KX2-361 Brain Concentrations, Group B ([1]; 2 hr): 78.76 ng/g
KX2-361 Brain Concentrations, Group C ([1]; 2 hr): 336.07 ng/g
KX2-361 Brain Concentrations, Group A ([1]; 5 hr): BLQ (BLQ: Below Limit of Quantitation (1 ng/mL))
KX2-361 Brain Concentrations, Group C ([1]; 5 hr): 47.85 ng/g
AUClast Brain/AUClast Plasma Ratio ([1]; single oral dose 10 mg/kg): 0.76
Median survival (GL261 glioma cells; 15 mg/kg bid oral): 30.5
survival Range (GL261 glioma cells; 15 mg/kg bid oral): 25-34
Median survival (GL261 glioma cells; 30 mg/kg bid oral): 29
survival Range (GL261 glioma cells; 30 mg/kg bid oral): 23-32
survival of mice bearing intracranial GL261 gliomas (GL261 glioma cells; orally at 15 mg/kg/dose bid 7 hours apart): best results

O=C(Cc1ccc(-c2ccc(OCCN3CCOCC3)cc2)cn1)NCc1ccccc1 [KXO1]
GI50 (HT29 cell line; HT29 (Colon) cells): 0.025 µM
GI50 (c-Src 3T3 cells): 0.023 µM
IC50 (isolated Src): 46 µM
phosphorylation of Shc Y239/240 (Src transphosphorylation) (Shc Y239/240): potent inhibitor
PDGF receptor Y572/574 autophosphorylation [2]: not inhibited

— patent publication US10196357B2, “Biaryl compositions and methods for modulating a kinase cascade” (Athenex, Inc., priority 2007, dated 2019)
